Reference: publication PMC5352194, “Toward the development of a novel non-RGD cyclic peptide drug conjugate for treatment of human metastatic melanoma” (Oncotarget, 2016)

How the values were obtained:
[1] = system: WM-266-4 human metastatic melanoma cells; test: Cell survival test (XTT assay), WM-266-4; assay type: cell-based; conditions: WM-266-4 cells, 10μM, 48 hours, three repeats in quadruplicates
Method: (§1) The cytotoxicity of the compounds was determined by measuring the mitochondrial enzyme activity, using a commercial XTT assay kit (#20-30-100, Biological Industries, Beit-Haemek, Israel) according to the manufacturer protocol using 2×10^3 cells/well of a 96–well plate. The cells were cultured for 24 hours in growth medium followed by additional 48 hours with growth medium supplemented with different concentrations of the tested substances. The absorbance of the XTT reagent was measured with a TECAN Infinite M200 ELISA reader. The absorbencies were normalized to the absorbance of cells grown in medium and solvent. All the tests were repeated three times in quadruplicates.

[2] = system: non-malignant HEK293 cells; test: Cell survival test (XTT assay), HEK293; assay type: cell-based, human; conditions: 48 hours, XTT (experiment repeated as for WM-266-4, 10μM), three repeats in quadruplicates
Method: as §1

γH2A.X in HEK293 cells = test: Western blot, γH2A.X (DSBs) in HEK293 cells; assay type: cell-based, human; conditions: 3 hours
Method: (§2) The cells were scraped and washed with PBS buffer. Cell lysates were prepared by sonication in 1 X SDS sample buffer supplemented with protease inhibitor cocktail (MBS539134, Millipore) and boiling for 10 min. The proteins were separated by SDS-PAGE and transferred to nitrocellulose membranes. The following antibodies were used for western blotting: active caspase 3 (C8487, Sigma), γH2AX (05-636, Millipore) and histone H3 (05-928, Millipore). The band intensities in a representative experiment were quantified by the ImageJ program.

[3] = Chemo-stability (lactone ring opening), LC-MS; assay type: physicochemical; conditions: chemical stability, 0.1 mM in PBS pH 7.4, 37°C, 5 h incubation, samples injected twice
Method: Electron spray mass spectra (ESI-MS) were obtained using an Autoflex III smart-beam (MALDI, Bruker), Q-TOF micro (Waters) or an LCQ Fleet™ ion trap mass spectrometer (Finnigan/Thermo). HPLC/LC-MS analyses were made using Agilent infinity 1260 connected to Agilent quadruple LC-MS 6120 series equipped with ZORBAX SB-C18, 50 × 2.1 mm, 1.8 μm column. In all cases the eluent solvents were A (0.1% TFA in H2O) and B (0.1% TFA in ACN) and the elution gradient profile was: 100% A for first 4 min, 8 min (from min 4 to min 12) during which it reached 100% B, 4 min (from min 12 to min 16) of 100% B, 2 min (from min 16 to min 18) during which it returned back to A, and 2 min (from min 18 to min 20) of 100% A. The UV detection was at 254 nm. Column temperature was kept at 50°C. The flow rate was of 0.4 ml/min. The MS fragmentor was tuned on 100V on positive or negative mode.
0.1 mM CPT and ALOS4-CPT were incubated in acetate buffer at pH 4.5 and in PBS at pH 7.4 at 37°C. During the incubation period (24h - 144h), aliquots were removed at different time intervals, filtered and analyzed by LC-MS.

WM-266-4 cells = test: Confocal analysis of intracellular localization of CPT in live cells; assay type: cell-based, human; conditions: live WM-266-4 cells, 10 μM, 1 h, CPT fluorescence
Text: Fluorescent images of ALOS4-FITC were acquired by Photometrics CoolSNAP HQ2 camera mounted on an Olympus iX81 fluorescent microscope. For confocal microscopy analysis the cells were transfected with a plasmid expressing GFP-fused histone H1E (pH1E-GFP) using Xfect polymer (ST0152, Clontech Laboratories, CA, USA) and were stained with CytoPainter Lysosomal Staining Kit - Red Fluorescence (ab112137, Abcam, Cambridge, MA, USA). Images were collected with a Zeiss LSM700 confocal microscope.

[4] = system: active caspase 3 in HEK293 cells; test: Western blot, active caspase 3 in HEK293 cells; assay type: cell-based, human
Method: as §2

Compound | Cell survival, % of the control cells [1] | Cell survival, % of the control cells [2] | Increase in the levels of γH2A.X (γH2A.X in HEK293 cells) | CPT that underwent lactone ring opening to carboxylate [3] | Intracellular localization of CPT (WM-266-4 cells) | Increase in the levels of active caspase 3 ([4]; 3 hours) | Increase in the levels of active caspase 3 ([4]; 24 hours)
CN(C)CCN1C(=O)c2cccc3cc(N)cc(c23)C1=O [AM, Amonafide] | 48% | 27% | – | – | – | – | –
COc1cc([C@@H]2c3[nH]c4ccccc4c3C[C@H]3COC(=O)N32)cc(OC)c1O [AZA, Azatoxin] | 68% | 44% | – | – | – | – | –
CC[C@@]1(O)C(=O)OCc2c1cc1n(c2=O)Cc2cc3ccccc3nc2-1 [CPT, Camptothecin] | 65% | 16% | ~2 fold | ~40% | accumulation of CPT inside the nucleus and to some less degree in the lysosome | ~2 fold | more than 5 fold
